# Source: patent publication US7507716B2, “Method for treating pain with prolactin antagonists” (Board of Regents, The University of Texas System, priority 2005, dated 2009)
# Legend:
# [1] = tested on: gene expression in trigeminal ganglia; experiment: Affymetrix microarray of trigeminal ganglia RNA after estradiol administration; type: in vivo, rat; settings: OVX rats, estradiol 80 μg/kg/10 days versus vehicle
# Description: At the end of the 10th day, animals were used for behavioral experiments or sacrificed by decapitation and the TG of each individual animal were harvested. Harvested tissue was used for RNA isolation, total protein isolation, or for preparing primary cultures of TG neurons.
# The ground tissue was used to isolate total RNA by the guanidinium thiocyanate method as described previously (Chomczynski and Sacchi, 1987). The isolated RNA was then treated with a DNA-free reagent (DNAse I; Ambion, Austin, Tex.) and submitted to the Microarray Core Facility at the University of Texas Health Science Center at San Antonio. Additional RNA sample aliquots were used as template for the quantitative real time RT-PCR experiments.
# Microarray analysis: Target preparation, hybridization, staining, scanning and analysis of image: RNA samples derived from TG of OVX rats treated with a single dose (80 μg/kg per day) of E2 or vehicle (n=5 for each group) were prepared for hybridization to Affymetrix (Santa Clara, Calif.) RG-U34A arrays according to the manufacturer's instructions. Total RNA was used as a template for double-stranded cDNA synthesis (Superscript Double-Stranded cDNA Synthesis kit, Invitrogen, Carlsbad, Calif.), which was used as a template for biotin-labeled cRNA synthesis (Enzo BioArray High Yield RNA Transcription Labeling Kit, Affymetrix). Purified (RNeasy kit, Qiagen, Valencia, Calif.) labeled-cRNA was hybridized to the rat genomic RG-U34A GeneChips for 16 h at 45° C. Following hybridization, the probe arrays were washed and stained using the GeneChip Fluidics station protocol EukGE-ES2. The intensity of bound dye was measured with an argon laser confocal scanner (GeneArray Scanner, Agilent, Palo Alto, Calif.). The probe arrays were scanned twice and the stored images were aligned and analyzed using the GeneClip software Micro array Analysis Suite (MAS) 5.0 (Affymetrix, Santa Clara, Calif.). Data were imported into the GeneSpring 5.1 software (Silicon Genetics, Redwood City, Calif.) and a list of genes of relative expression of ≧1.5 and ≧0.5 fold was obtained. The data were imported into the R software package and the probe level data were converted to expression measures using the Affy package (Bolstad et al., 2003) from Bioconductor. Expression values for each mRNA were obtained by the Robust Multi-array Analysis (RMA) method as described elsewhere (Boistad et al., 2003).
# [2] = tested on: capsaicin-evoked nocifensive behavior; experiment: Eye-wipe test (corneal capsaicin); type: in vivo, rat
# Description: To whether this effect has relevance to capsaicin-induced nociception in the whole animal, corneal wipe tests were performed. In this test, corneal application of capsaicin induces a brief nocifensive behavior in the trigeminal region of awake animals (Price et al., 2004; Neubert et al., 2005; Tender et al., 2005). The cornea is a specialized tissue innervated by trigeminal sensory neurons including TRPV1 positive C-fibers (Guo et al., 1999). Turning to FIG. 8A, the results of immunohistochemical analysis of corneal cryosections from proestrous females reveal the presence of fibers that stain positive for both PRL-R (green) and TRPV1 (red) (FIG. 8A).
# In this test, the effect of PRL pretreatment on capsaicin-induced eye wiping in proestrous rats was examined. PRL (1 μg/ul in saline) or vehicle (40 μl) was applied in the cornea immediately followed by application of 0.01% capsaicin or vehicle (40 μl) and the total time spent grooming the injected eye per 5 min bins was measured by observers blinded to treatment allocation. Data are shown as mean±SEM (n=6/group *=p<0.05 and ***=p<0.001; two-way ANOVA). […] Data are shown as mean±SEM (n=6/group; two-way ANOVA). […] Data are shown as mean±SEM (n=6/group, **=p<0.01; two-way ANOVA). The effect of PRL on capsaicin-mediated nocifensive response was assessed next in male rats, in order to determine whether the influence of PRL-signaling on nociception is conserved between gender. Corneal wipe tests were performed on age-matched male rats essentially as described above. Data in FIG. 8E are shown as mean±SEM (n=6/group, **=p<0.01; two-way ANOVA). Unexpectedly, the capsaicin-mediated nocifensive response profile of male rats is strikingly similar to that of proestrus rats (compare FIG. 8E with FIG. 8B) and estradiol-treated OVX rats (compare FIG. 8E with FIG. 8D), and divergent from that found in control OVX rats treated with vehicle.
# Eye-Wipe Test OVX female rats, treated with either vehicle or E2 (5μg/day/10 days), or intact female rats in the proestrous reproductive stage were brought to a quiet, temperature controlled (22-25° C.) behavioral laboratory in individual cages where they were allowed to acclimate for at least 2 h. PRL (1 μg/μl) or vehicle was placed directly onto the right eye in a volume of 40 ul followed by application of 0.01% (40 μl) capsaicin solution as described previously (Price et al. 2004). The resulting behavioral response was measured as time spent grooming or wiping the test eye. The observers were blinded to the treatments and the data were collected in 3 bins of 5 min.
molecule,measurement,setting,value
"C[C@]12CC[C@@H]3c4ccc(O)cc4CC[C@H]3[C@@H]1CC[C@@H]2O [estradiol, 17-β-estradiol]","Trk A 3′ mRNA sequence expression, GS (change cut-off)",[1]; probe set AA958274_at,≧1.5
same,"Trk A 3′ mRNA sequence expression, SAM",[1]; probe set AA958274_at,1.5
same,"Histidine ammonia lyase expression, GS (change cut-off)",[1]; probe set AB002393_at,≧1.5
same,"Histidine ammonia lyase expression, SAM",[1]; probe set AB002393_at,1.5
same,"Ania-10 early gene mRNA, 3′ UTR expression, GS (change cut-off)",[1]; probe set AF050662UTR#1_at,≧1.5
same,"Ania-10 early gene mRNA, 3′ UTR expression, SAM",[1]; probe set AF050662UTR#1_at,1.6
same,"Ania-12 early gene mRNA, 3′ UTR expression, GS (change cut-off)",[1]; probe set AF050664UTR#1_at,≧1.5
same,"Ania-12 early gene mRNA, 3′ UTR expression, SAM",[1]; probe set AF050664UTR#1_at,1.5
same,"Insulin receptor substrate 2 (IRS-2) mRNA expression, GS (change cut-off)",[1]; probe set AF087674_at,≧1.5
same,"Insulin receptor substrate 2 (IRS-2) mRNA expression, SAM",[1]; probe set AF087674_at,1.4
same,"Interleukin 1 alpha expression, GS (change cut-off)",[1]; probe set D00403_g_at,≧1.5
same,"Interleukin 1 alpha expression, SAM","[1]; probe set D00403_g_at, false positive by RT-PCR",1.3
same,"Aldosterone synthase, exon 9 expression, GS (change cut-off)",[1]; probe set D14097cds_s_at,≧1.5
same,"Aldosterone synthase, exon 9 expression, SAM",[1]; probe set D14097cds_s_at,1.5
same,"Cytochrome P450, 3a18 expression, GS (change cut-off)",[1]; probe set D38381_s_at,≧1.5
same,"Cytochrome P450, 3a18 expression, SAM",[1]; probe set D38381_s_at,1.3
same,"Prepro bone inducing protein expression, GS (change cut-off)",[1]; probe set D49494cds_s_at,≧1.5
same,"Prepro bone inducing protein expression, SAM",[1]; probe set D49494cds_s_at,1.3
same,"Prolactin expression, GS (change cut-off)",[1]; probe set E03166cds_s_at,≧1.5
same,"Prolactin expression, SAM",[1]; probe set E03166cds_s_at,6.9
same,"Nuclear receptor subfamily 1, Group D, member 1 expression, GS (change cut-off)",[1]; probe set M25801_g_at,≧1.5
same,"Nuclear receptor subfamily 1, Group D, member 1 expression, SAM",[1]; probe set M25801_g_at,1.5
same,"Protein phosphatase 3, catalytic subunit, beta isoform expression, GS (change cut-off)",[1]; probe set M31809_at,≦1.5
same,"Protein phosphatase 3, catalytic subunit, beta isoform expression, SAM",[1]; probe set M31809_at,0.6
same,"Electron transf. flavoprotein (Etfa), mRNA expression, GS (change cut-off)",[1]; probe set Rc_AA894174_at,≦1.5
same,"Electron transf. flavoprotein (Etfa), mRNA expression, SAM",[1]; probe set Rc_AA894174_at,0.7
same,"Arachidonate 12-lipoxygenase expression, GS (change cut-off)",[1]; probe set S69383_at,≦1.5
same,"Arachidonate 12-lipoxygenase expression, SAM",[1]; probe set S69383_at,0.5
same,"Prolactin expression, GS (change cut-off)",[1]; probe set V01244_at,≧1.5
same,"Prolactin expression, SAM",[1]; probe set V01244_at,12.8
same,"Prolactin expression, GS (change cut-off)",[1]; probe set V01250cds_s_at,≧1.5
same,"Prolactin expression, SAM",[1]; probe set V01250cds_s_at,3
same,"Interleukin 5 (colony-stimulating factor, eosinophil) expression, GS (change cut-off)",[1]; probe set X54419cds_at,≧1.5
same,"Interleukin 5 (colony-stimulating factor, eosinophil) expression, SAM",[1]; probe set X54419cds_at,1.3
same,"Cytosolic epoxide hydrolase expression, GS (change cut-off)",[1]; probe set X60328_at,≧1.5
same,"Cytosolic epoxide hydrolase expression, SAM",[1]; probe set X60328_at,1.7
same,"Similar to M. musculus pre 45S pre rRNA gene expression, GS (change cut-off)",[1]; probe set rc_AA859966_i_at,≧1.5
same,"Similar to M. musculus pre 45S pre rRNA gene expression, SAM",[1]; probe set rc_AA859966_i_at,4.1
same,"Cytochrome P450, subfamily IIC6 expression, GS (change cut-off)",[1]; probe set rc_AA945571_sat,≧1.5
same,"Cytochrome P450, subfamily IIC6 expression, SAM",[1]; probe set rc_AA945571_sat,1.7
same,PRL sensitization of capsaicin nocifensive behavior,[2]; OVX female rats treated with estradiol,restores PRL sensitization of capsaicin nocifensive behavior
"PRL: Ovine PRL [oPRL-21, BIO] provided by NHPP; prolactin polypeptide hormone (protein, UniProt P01240 31-229, looked up) Prolactin: TPVCPNGPGNCQVSLRDLFDRAVMVSHYIHNLSSEMFNEFDKRYAQGKGFITMALNSCHTSSLPTPEDKEQAQQTHHEVLMSLILGLLRSWNDPLYHLVTEVRGMKGVPDAILSRAIEIEEENKRLLEGMEMIFGQVIPGAKETEPYPVWSGLPSLQTKDEDARHSAFYNLLHCLRRDSSKIDTYLKLLNCRIIYNNNC",capsaicin-responsiveness (eye wiping),"[2]; OVX female rats, PRL pretreatment",no change in capsaicin-responsiveness was observed
same,capsaicin-mediated nocifensive response,"[2]; age-matched male rats, PRL pretreatment",influences nociceptor sensitization in male rats
same,capsaicin-mediated nocifensive behavior (eye wiping),"[2]; proestrous rats, PRL 1 μg/μl 40 μl on cornea, then 0.01% capsaicin",significantly increases capsaicin-mediated nocifensive behavior
